Measurements reported in patent publication US8389500B2, “Fused heterocyclic compounds as ion channel modulators” (Gilead Sciences, Inc., priority 2008, dated 2013).

Key:
[1] = target: T1, wild-type human cardiac sodium channel, hNav1.5 (late sodium current) (Homo sapiens, UniProt Q14524); test: Late INa screening assay (PatchXpress whole cell patch clamp); type: cell-based; settings: HEK293 hNav1.5, late INa generated with 10 μM Tefluthrin (some experiments 50 nM ATX II); for inhibition at 10 µM: 10 μM test compound, read-out: Late INa % blk (10 μM test cmpd); for inhibition at 1 µM: 1 μM test compound, read-out: Late INa % blk (1 μM test cmpd)
T1 construct: host or cells: HEK293
T1 sequence (Q14524 whole entry): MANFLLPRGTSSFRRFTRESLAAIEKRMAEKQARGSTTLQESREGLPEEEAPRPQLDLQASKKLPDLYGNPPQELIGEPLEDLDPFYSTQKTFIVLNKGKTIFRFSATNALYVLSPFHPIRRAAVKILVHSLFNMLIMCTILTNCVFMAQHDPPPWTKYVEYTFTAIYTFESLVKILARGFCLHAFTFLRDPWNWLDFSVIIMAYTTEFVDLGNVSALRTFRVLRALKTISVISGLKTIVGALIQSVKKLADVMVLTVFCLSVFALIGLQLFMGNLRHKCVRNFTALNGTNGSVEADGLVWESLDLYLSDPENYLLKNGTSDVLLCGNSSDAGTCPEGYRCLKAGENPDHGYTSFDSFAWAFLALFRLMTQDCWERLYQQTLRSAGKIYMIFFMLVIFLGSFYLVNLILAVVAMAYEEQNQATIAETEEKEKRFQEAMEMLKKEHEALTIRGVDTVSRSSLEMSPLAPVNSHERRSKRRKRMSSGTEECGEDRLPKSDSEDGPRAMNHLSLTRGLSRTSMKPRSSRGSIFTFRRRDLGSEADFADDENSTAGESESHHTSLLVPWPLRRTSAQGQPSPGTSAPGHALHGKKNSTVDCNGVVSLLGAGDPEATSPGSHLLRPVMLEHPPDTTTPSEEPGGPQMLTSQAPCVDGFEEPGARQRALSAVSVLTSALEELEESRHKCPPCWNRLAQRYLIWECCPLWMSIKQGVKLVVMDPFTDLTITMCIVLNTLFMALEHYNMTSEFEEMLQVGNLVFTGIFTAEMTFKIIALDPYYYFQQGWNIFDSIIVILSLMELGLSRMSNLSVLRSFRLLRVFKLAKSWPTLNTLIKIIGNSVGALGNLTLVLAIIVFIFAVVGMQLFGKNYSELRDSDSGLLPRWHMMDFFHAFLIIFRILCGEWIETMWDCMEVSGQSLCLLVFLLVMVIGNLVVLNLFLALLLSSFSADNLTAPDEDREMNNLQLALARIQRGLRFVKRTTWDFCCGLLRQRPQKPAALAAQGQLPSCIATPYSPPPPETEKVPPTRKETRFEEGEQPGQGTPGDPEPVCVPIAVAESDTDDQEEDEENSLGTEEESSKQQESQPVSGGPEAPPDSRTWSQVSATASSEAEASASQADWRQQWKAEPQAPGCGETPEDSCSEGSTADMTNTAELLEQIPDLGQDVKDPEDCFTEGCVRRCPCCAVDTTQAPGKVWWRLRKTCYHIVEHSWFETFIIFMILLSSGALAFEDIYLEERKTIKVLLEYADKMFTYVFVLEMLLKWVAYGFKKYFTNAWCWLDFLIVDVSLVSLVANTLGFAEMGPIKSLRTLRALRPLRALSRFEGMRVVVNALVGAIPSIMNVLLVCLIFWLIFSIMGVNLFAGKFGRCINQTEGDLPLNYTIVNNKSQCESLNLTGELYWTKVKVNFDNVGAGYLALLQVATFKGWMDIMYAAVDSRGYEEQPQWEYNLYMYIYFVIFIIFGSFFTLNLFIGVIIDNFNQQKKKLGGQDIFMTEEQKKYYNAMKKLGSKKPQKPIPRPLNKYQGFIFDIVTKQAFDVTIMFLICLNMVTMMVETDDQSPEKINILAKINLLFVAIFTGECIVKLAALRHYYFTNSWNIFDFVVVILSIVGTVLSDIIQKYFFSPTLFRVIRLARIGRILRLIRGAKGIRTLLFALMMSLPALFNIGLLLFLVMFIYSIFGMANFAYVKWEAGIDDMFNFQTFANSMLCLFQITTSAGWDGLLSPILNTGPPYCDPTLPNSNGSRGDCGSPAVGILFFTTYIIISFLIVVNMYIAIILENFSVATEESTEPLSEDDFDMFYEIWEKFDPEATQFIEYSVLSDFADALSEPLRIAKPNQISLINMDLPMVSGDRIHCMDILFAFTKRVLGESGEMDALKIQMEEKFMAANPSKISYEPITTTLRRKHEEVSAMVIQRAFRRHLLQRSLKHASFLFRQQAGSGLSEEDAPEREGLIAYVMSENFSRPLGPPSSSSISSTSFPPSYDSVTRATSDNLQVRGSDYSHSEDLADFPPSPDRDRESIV
In short: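 Late sodium current block was assessed by automated whole cell patch clamp on a PatchXpress 7000A using HEK293 cells stably expressing wild-type human hNav1.5 without beta subunits. Late current was induced with 10 μM Tefluthrin or 50 nM ATX II. Channels were stepped from −120 mV to −20 mV for 250 ms at 0.1 Hz at 24-27° C. Current was normalized to 0Na baseline and expressed as percent block.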

hERG potassium channel = target: T2, hERG potassium channel (Homo sapiens, UniProt Q12809); test: hERG screening assay (PatchXpress patch clamp, CHO cells); type: cell-based; settings: hERG in CHO cells, peak current at −50 mV; for hERG Patch Clamp hERG % blk 1 μm: 1 μm test compound; for hERG Patch Clamp hERG % blk 10 μm: 10 μm test compound
T2 construct: expressed in transfected cells; host or cells: CHO (Chinese Hamster Ovary)
T2 sequence (Q12809 whole entry): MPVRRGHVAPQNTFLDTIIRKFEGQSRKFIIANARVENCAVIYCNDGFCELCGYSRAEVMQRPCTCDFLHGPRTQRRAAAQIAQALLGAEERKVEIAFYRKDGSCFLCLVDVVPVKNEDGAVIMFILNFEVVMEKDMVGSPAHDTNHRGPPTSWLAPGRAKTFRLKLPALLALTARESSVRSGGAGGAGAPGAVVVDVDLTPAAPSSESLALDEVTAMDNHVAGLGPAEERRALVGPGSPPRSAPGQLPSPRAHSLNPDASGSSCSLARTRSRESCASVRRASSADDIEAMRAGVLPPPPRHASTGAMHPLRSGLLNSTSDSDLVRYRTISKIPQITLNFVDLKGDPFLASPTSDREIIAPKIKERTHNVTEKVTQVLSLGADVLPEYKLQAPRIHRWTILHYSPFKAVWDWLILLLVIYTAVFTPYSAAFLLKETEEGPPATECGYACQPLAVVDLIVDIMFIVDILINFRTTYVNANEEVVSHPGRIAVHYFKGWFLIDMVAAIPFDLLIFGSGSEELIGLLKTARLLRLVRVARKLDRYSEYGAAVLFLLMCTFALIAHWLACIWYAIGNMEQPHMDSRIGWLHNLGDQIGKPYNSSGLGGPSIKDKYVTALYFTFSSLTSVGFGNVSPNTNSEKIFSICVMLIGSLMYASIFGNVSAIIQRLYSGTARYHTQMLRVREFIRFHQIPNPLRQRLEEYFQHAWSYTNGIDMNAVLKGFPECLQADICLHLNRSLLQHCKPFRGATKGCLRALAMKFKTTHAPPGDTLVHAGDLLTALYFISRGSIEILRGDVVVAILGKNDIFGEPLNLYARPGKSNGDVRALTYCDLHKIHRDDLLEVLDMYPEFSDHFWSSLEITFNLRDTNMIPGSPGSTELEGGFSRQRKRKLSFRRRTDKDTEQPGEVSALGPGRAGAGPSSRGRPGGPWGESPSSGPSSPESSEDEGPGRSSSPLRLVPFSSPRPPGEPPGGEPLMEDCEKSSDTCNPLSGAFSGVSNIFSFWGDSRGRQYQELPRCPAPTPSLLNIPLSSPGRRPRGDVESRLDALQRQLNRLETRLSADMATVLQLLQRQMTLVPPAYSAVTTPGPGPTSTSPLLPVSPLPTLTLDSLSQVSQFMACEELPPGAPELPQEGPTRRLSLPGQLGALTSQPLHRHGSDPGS
Method: Compounds were screened to test their activity in blocking the hERG potassium channel. The hERG channel is heterologously expressed in a CHO (Chinese Hamster Ovary) cell line. Cells are maintained with standard tissue culture procedures and stable channel expression is maintained with 500 μg/ml G418 in the culture medium. Cells are harvested for testing on the PatchXpress automated patch clamp with Accumax (Innovative Cell Technologies, San Diego, Calif.) to isolate single cells.
The following solutions are used for electrophysiological recordings. The external solution contains: 2 mM CaCl2; 2 mM MgCl2; 4 mM KCl; 150 mM NaCl; 10 mM Glucose; 10 mM HEPES (pH 7.4 with 1M NaOH, osmolarity). The internal solution contains: 140 mM KCl, 10 mM MgCl2, 6 mM EGTA, 5 mM HEPES, 5 mM ATP (pH adjusted to 7.25 with KOH).
hERG channels are activated when the voltage is stepped to +20 mV from the −80 mV holding potential. During a 5 second step at +20 mV, the channels activate and then largely inactivate, so the currents are relatively small. Upon returning to −50 mV from +20 mV, hERG currents transiently become much larger as inactivation is rapidly removed and then the channel closes. The first step to −50 mV for 300 ms is used as a baseline for measuring the peak amplitude during the step to −50 mV after channel activation. The peak current at −50 mV is measured both under control conditions and after addition of compound.
All compounds are prepared as 10 mM DMSO stocks in glass vials. Stock solutions are mixed by vigorous vortexing and sonication for about 2 minutes at room temperature. For testing, compounds are diluted in glass vials using an intermediate dilution step in pure DMSO and then further diluted to working concentrations in external solution. Dilutions are prepared no longer than 20 minutes before use.
After achieving the whole-cell configuration, cells are monitored for 90 seconds to assess stability and washed with external solution for 66 seconds. The voltage protocol described above is then applied to the cells every 12 seconds and throughout the whole procedure. Only cells with stable recording parameters and meeting specified health criteria are allowed to enter the compound addition procedure.
External solution containing 0.1% DMSO (vehicle) is applied to the cells first to establish the control peak current amplitude. After allowing the current to stabilize for 3 to 5 minutes, 1 μM and then 10 μM test compounds are applied. Each compound concentration is added 4 times and cells are kept in test solution until the effect of the compound reaches steady state or for a maximum of 12 minutes. After addition of test compound, a positive control (1 μM Cisapride) is added and must block >95% of the current for the experiment to be considered valid. Washout in the external solution compartment is performed until the recovery of the current reaches steady state. Data are analyzed using DataXpress, Clampfit (Molecular Devices, Inc., Sunnyvale) and Origin 7 (Originlab Corp.)

Compound | inhibition at 10 µM [1] [%] | also measured
CS(=O)(=O)Nc1ccc(-c2cccc(C(F)(F)F)c2)cc1 [PT-001, N-[3′-(trifluoromethyl)biphenyl-4-yl]methanesulfonamide] | 58.1 | hERG Patch Clamp hERG % blk 1 μm (hERG potassium channel): 10%; hERG Patch Clamp hERG % blk 10 μm (hERG potassium channel): 66%
COc1cc(NS(C)(=O)=O)ccc1-c1ccc(Cl)c(F)c1 [PT-003, N-(4′-chloro-3′-fluoro-2-methoxybiphenyl-4-yl)methanesulfonamide] | 58.3 | inhibition at 1 µM [1]: 11.2%; hERG Patch Clamp hERG % blk 1 μm (hERG potassium channel): 10%; hERG Patch Clamp hERG % blk 10 μm (hERG potassium channel): 28.3%
CS(=O)(=O)Nc1ccc(-c2ccc(C(F)(F)F)cc2)c(C(F)(F)F)c1 [PT-013, N-[2,4′-bis(trifluoromethyl)biphenyl-4-yl]methanesulfonamide] | 54.1 | hERG Patch Clamp hERG % blk 1 μm (hERG potassium channel): 10.5%; hERG Patch Clamp hERG % blk 10 μm (hERG potassium channel): 29%
CS(=O)(=O)Nc1ccc(-c2ccc(Cl)c(F)c2)c(Cl)c1 [PT-017, N-(2,4′-dichloro-3′-fluorobiphenyl-4-yl)methanesulfonamide] | 69.5 | inhibition at 1 µM [1]: 34.8%; hERG Patch Clamp hERG % blk 1 μm (hERG potassium channel): 21%; hERG Patch Clamp hERG % blk 10 μm (hERG potassium channel): 80%
Cc1cc(NS(C)(=O)=O)ccc1-c1ccc(Oc2ccccc2)cc1 [PT-046, N-(2-methyl-4′-phenoxybiphenyl-4-yl)methanesulfonamide] | – | hERG Patch Clamp hERG % blk 1 μm (hERG potassium channel): 10%; hERG Patch Clamp hERG % blk 10 μm (hERG potassium channel): 28.5%
Cc1cc(N(Cc2ccc(C(=O)O)cc2)S(C)(=O)=O)ccc1-c1ccc(Oc2ccc(F)cc2)cc1 [PT-136, 4-((N-(4′-(4-fluorophenoxy)-2-methylbiphenyl-4-yl)methylsulfonamido)methyl)benzoic acid] | 8.8 | –
CNC(=O)c1cc(N(Cc2ccc(S(C)(=O)=O)cc2)S(C)(=O)=O)ccc1-c1ccc(Oc2ccccc2)cc1 [PT-138, N-methyl-4-(N-(4-(methylsulfonyl)benzyl)methylsulfonamido)-4′-phenoxybiphenyl-2-carboxamide] | 12.6 | –
CNC(=O)c1cc(NS(=O)(=O)C2CC2)ccc1-c1ccc(Oc2ccccc2)cc1 [PT-139, 4-(cyclopropanesulfonamido)-N-methyl-4′-phenoxybiphenyl-2-carboxamide] | 43.7 | –
CC(C)NC(=O)c1cc(NS(C)(=O)=O)ccc1-c1ccc(Oc2ccccc2)cc1 [PT-140, N-isopropyl-4-(methylsulfonamido)-4′-phenoxybiphenyl-2-carboxamide] | 47.4 | –
Cc1cc(N(Cc2ccc(C(=O)O)cc2)S(C)(=O)=O)ccc1-c1ccc(Oc2ccccc2)c(F)c1 [PT-141, 4-((N-(3′-fluoro-2-methyl-4′-phenoxybiphenyl-4-yl)methylsulfonamido)methyl)benzoic acid] | 23.8 | –
Cc1cc(-c2ccc(Oc3ccccc3)cc2)c(F)cc1N(Cc1ccc(C(=O)O)cc1)S(C)(=O)=O [PT-142, 4-((N-(2-fluoro-5-methyl-4′-phenoxybiphenyl-4-yl)methylsulfonamido)methyl)benzoic acid] | 2.7 | –
Cc1cc(N(Cc2ccc([N+](=O)[O-])cc2)S(C)(=O)=O)ccc1-c1ccc(Oc2ccccc2)cc1 [PT-143, N-(2-methyl-4′-phenoxybiphenyl-4-yl)-N-(4-nitrobenzyl)methanesulfonamide] | 8.7 | –
Cc1cc(NS(C)(=O)=O)ccc1-c1ccc(OC(C)C)cc1 [PT-144, N-(4′-isopropoxy-2-methylbiphenyl-4-yl)methanesulfonamide] | 44.7 | –
CCOC(=O)c1ccc(CN(c2ccc(-c3ccc(OC(C)C)cc3)c(C)c2)S(C)(=O)=O)cc1 [PT-145, ethyl 4-((N-(4′-isopropoxy-2-methylbiphenyl-4-yl)methylsulfonamido)methyl)benzoate] | 17.1 | –
Cc1cc(N(Cc2ccc(C(=O)O)cc2)S(C)(=O)=O)ccc1-c1ccc(OC(C)C)cc1 [PT-146, 4-((N-(4′-isopropoxy-2-methylbiphenyl-4-yl)methylsulfonamido)methyl)benzoic acid] | 3.65 | –
CC(C)Oc1ccc(-c2ccc(NS(C)(=O)=O)c(Cl)c2)cc1 [PT-148, N-(3-chloro-4′-isopropoxybiphenyl-4-yl)methanesulfonamide] | 36.2 | –
CS(=O)(=O)Nc1ccc(-c2ccc(Oc3ccc(F)cc3)cc2)cc1Cl [PT-149, N-(3-chloro-4′-(4-fluorophenoxy)biphenyl-4-yl)methanesulfonamide] | 58 | –
Cc1cc(NS(=O)(=O)C2CC2)ccc1-c1ccc(C#N)cc1 [PT-150, N-(4′-cyano-2-methylbiphenyl-4-yl)cyclopropanesulfonamide] | 22.5 | –
Cc1cc(NS(=O)(=O)C2CC2)ccc1-c1ccc(OC(C)C)cc1 [PT-151, N-(4′-isopropoxy-2-methylbiphenyl-4-yl)cyclopropanesulfonamide] | 32.6 | –
CC(C)Oc1ccc(-c2ccc(NS(=O)(=O)C3CC3)c(C#N)c2)cc1 [PT-152, N-(3-cyano-4′-isopropoxybiphenyl-4-yl)cyclopropanesulfonamide] | 29 | –
CS(=O)(=O)N(Cc1ccc(C(=O)O)cc1)c1cccc(-c2ccc(C(F)(F)F)c(F)c2)c1 [PT-154, 4-((N-(3′-fluoro-4′-(trifluoromethyl)biphenyl-3-yl)methylsulfonamido)methyl)benzoic acid] | 7 | –
CS(=O)(=O)N(Cc1ccc(C(=O)O)cc1)c1ccc(-c2ccc(Oc3ccccc3)cc2)cc1 [PT-156, 4-((N-(4′-phenoxybiphenyl-4-yl)methylsulfonamido)methyl)benzoic acid] | 7.9 | –
CC(C)Oc1ccc(-c2ccc(NS(=O)(=O)C3CC3)c(-c3nn[nH]n3)c2)cc1 [PT-157, N-(4′-isopropoxy-3-(2H-tetrazol-5-yl)biphenyl-4-yl)cyclopropanesulfonamide] | 5.8 | –
Cc1cc(NS(=O)(=O)C2CC2)ccc1-c1ccc(-c2nn[nH]n2)cc1 [PT-158, N-(2-methyl-4′-(2H-tetrazol-5-yl)biphenyl-4-yl)cyclopropanesulfonamide] | 2.8 | –
COP(=O)(O)c1cc(-c2ccc(Oc3ccc(F)cc3)cc2)ccc1NS(C)(=O)=O [PT-159, methyl hydrogen 4′-(4-fluorophenoxy)-4-(methylsulfonamido)biphenyl-3-ylphosphonate] | 36.1 | –
CS(=O)(=O)N(Cc1ccc(CC(=O)O)cc1)c1ccc(-c2ccc(Oc3ccccc3)cc2)c(Cl)c1 [PT-161, 2-(4-((N-(2-chloro-4′-phenoxybiphenyl-4-yl)methylsulfonamido)methyl)phenyl)acetic acid] | 30.9 | –
O=C(NCCO)c1cc(-c2ccc(C(F)(F)F)cc2)ccc1NS(=O)(=O)C1CC1 [PT-162, 4-(cyclopropanesulfonamido)-N-(2-hydroxyethyl)-4′-(trifluoromethyl)biphenyl-3-carboxamide] | -5.3 | –
CS(=O)(=O)Nc1ccc(-c2ccc(Oc3ccccc3)cc2)c(N)c1 [PT-163, N-(2-amino-4′-phenoxybiphenyl-4-yl)methanesulfonamide] | 54.7 | –
CS(=O)(=O)Nc1ccc(-c2ccc(C(F)(F)F)cc2)c(N)c1 [PT-164, N-(2-amino-4′-(trifluoromethyl)biphenyl-4-yl)methanesulfonamide] | 12.2 | –
CS(=O)(=O)Nc1ccc(-c2ccc(C(F)(F)F)cc2)c(NC(=O)c2cccnc2)c1 [PT-165, N-(4-(methylsulfonamido)-4′-(trifluoromethyl)biphenyl-2-yl)nicotinamide] | -0.3 | –
